Test [1] addresses T1, PI3K-delta (Homo sapiens, UniProt O00329).
T1 construct: purchased Upstate; Millipore 14-604
Briefly: HTRF PI3K biochemical assay, delta isoform. To be noted: form screened (neutral or TFA salt) given, read-out: PI3Kdelta IC50. On the technique in general: Time-resolved FRET reads energy transfer from a long-lived donor to a nearby acceptor.

The target in test [2] is T2, PI3K-alpha (Homo sapiens, UniProt P42336).
T2 construct: purchased Upstate; Millipore 14-602
The test is described as follows: HTRF PI3K biochemical assay, alpha isoform. As to conditions: ratio PI3K-alpha IC50 value / PI3K-delta IC50 value.
Excerpt: The PI3-Kinase biochemical assays were developed to measure the intrinsic potency and compound dependent inhibition of the alpha, beta, delta, and gamma PI3K isoform enzymes. This assay was developed and further optimized from a kit produced by Upstate (Millipore catalog #33-047) and has been configured for HTS and SAR screening. Briefly, this procedure exploits the exquisite specificity and high affinity binding of enzyme reaction substrate phosphatidyl(3,4,5)triphosphate (PIP3) to the GRP1 pleckstrin homology (PH) domain to generate the signal. In the absence of PIP3, an HTRF (Homogeneous Time-Resolved Fluorescence energy transfer) complex is formed consisting of europium (Eu)-labeled anti-GST, GSTtagged GRP1-PH domain, biotin-PIP3 and streptavidin conjugated APC. The native PIP3 produced by PI3-Kinase activity disrupts in a competitive manner the biotin-PIP3 from the PH domain, resulting in the loss of energy transfer (HTRF complex) and a decrease in the signal. The format of this assay is the same for all 4 isoforms of PI3K; the differences lie in the concentration of enzyme used to achieve robust assay window. The alpha, beta, and delta assays are run at 0.5, 1, and 0.3 nM enzymes and the gamma assay is run at 5 nM enzyme. The ATP concentration is 100 uM in the alpha, beta, and delta assays and 50 uM ATP in the gamma assay. All reactions are run at 5 uM PIP2.
Compounds are serially diluted (3-fold in 100% DMSO) across a 384-well polypropylene source plated from column 3 to column 12 and column 13 to column 22, to yield 10 concentration dose response for each test compound. Columns 1, 2, 23 and 24 contain either only DMSO or pharmacological known control inhibitor.
The PI3-Kinase biochemical assay was optimized using the HTRF kit provided by Upstate (Millipore). The assay kit contains six reagents: 1) 4× Reaction Buffer; 2) native PIP2 (substrate); 3) Stop (EDTA); 4) Detection Mix A (Streptavidin-APC); 5) Detection Mix B (Eu-labeled Anti-GST plus GST-tagged PH-domain); 6) Detection Mix C.
PI3Kinase Reaction Buffer is prepared by dilution the stock 1:4 with de-ionized water. […] Enzyme addition and compound pre-incubation are initiated by the addition of 1.25 ul of PI3K (at twice its final concentration) in the 1× reaction buffer to all wells using a BioRaptor. Plates are incubated at room temperature for 15 minutes. Reactions are initiated by addition of 1.25 ul of 2× substrate solution (PIP2 and ATP in 1× reaction buffer) using BioRaptor. Plates are incubated in humidified chamber at room temperature for one hour. Reactions are quenched by addition of 0.625 uL of stop solution to all wells using the BioRaptor. The quenched reactions are then processed to detect product formation by adding 0.625 uL of Detection Solution to all wells using the BioRaptor (Detection mix C, Detection Mix A, and Detection Mix B combined together in an 18:1:1 ratio prepared 2 hours prior to use).
The loss of the HTRF signal is due to the displacement of biotinylated-PIP3 from the PH domain by the PI3K-dependent conversion of PIP2 to PIP3. This loss of signal is nonlinear with respect to both increasing product and time. This non-linear detection will impact accuracy of IC50 calculations; therefore, there is a need for a correction factor to obtain more accurate IC50 values. This correction is derived from a PIP3 standard curve run in a separate assay plate. All data were calculated using the ratio of acceptor (APC) to donor (Europium) fluorescence in each well of the assay plate. […] An IC50 was then calculated fitting the % inhibition data to the equation: % inhibition=min+(Max−min)/1+([inhibitor]/IC50)^n) where min is the % inhibition with inhibitor, max is the signal in DMSO control, and n is the Hill slope.
The determination of relative selectivity for a given compound is defined as the relative ratio of the (PI3K-alphalC50 value/PI3K-delta IC50 value).

Some results are limits rather than exact numbers.

T2 sequence (P42336 whole entry): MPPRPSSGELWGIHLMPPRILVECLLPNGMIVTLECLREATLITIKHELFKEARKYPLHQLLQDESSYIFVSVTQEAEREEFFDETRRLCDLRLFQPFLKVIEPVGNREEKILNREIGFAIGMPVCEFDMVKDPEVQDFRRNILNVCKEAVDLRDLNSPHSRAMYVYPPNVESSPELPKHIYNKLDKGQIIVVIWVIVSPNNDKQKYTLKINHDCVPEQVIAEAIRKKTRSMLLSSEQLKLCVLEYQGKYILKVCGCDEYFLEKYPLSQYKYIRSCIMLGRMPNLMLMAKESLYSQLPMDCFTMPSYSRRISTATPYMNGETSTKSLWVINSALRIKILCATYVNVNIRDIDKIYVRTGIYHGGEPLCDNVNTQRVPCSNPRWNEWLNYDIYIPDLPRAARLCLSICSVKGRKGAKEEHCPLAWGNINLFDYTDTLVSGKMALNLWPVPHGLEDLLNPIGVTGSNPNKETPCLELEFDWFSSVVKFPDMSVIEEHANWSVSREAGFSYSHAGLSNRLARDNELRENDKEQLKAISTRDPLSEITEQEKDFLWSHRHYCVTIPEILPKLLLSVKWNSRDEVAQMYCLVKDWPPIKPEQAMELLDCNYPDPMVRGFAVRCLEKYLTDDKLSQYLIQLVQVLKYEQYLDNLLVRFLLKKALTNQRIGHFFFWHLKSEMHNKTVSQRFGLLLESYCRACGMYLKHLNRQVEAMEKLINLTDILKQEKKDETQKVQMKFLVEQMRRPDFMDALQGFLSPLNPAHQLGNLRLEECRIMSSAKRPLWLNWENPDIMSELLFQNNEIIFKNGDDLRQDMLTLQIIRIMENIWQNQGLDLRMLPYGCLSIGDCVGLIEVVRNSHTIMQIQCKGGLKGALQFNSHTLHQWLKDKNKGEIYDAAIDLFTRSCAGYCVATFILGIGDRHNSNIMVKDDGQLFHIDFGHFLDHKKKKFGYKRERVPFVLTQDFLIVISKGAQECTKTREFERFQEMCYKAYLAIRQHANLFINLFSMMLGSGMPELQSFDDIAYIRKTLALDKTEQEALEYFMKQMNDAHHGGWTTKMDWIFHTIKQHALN
T2 sequence (P27986 whole entry partner): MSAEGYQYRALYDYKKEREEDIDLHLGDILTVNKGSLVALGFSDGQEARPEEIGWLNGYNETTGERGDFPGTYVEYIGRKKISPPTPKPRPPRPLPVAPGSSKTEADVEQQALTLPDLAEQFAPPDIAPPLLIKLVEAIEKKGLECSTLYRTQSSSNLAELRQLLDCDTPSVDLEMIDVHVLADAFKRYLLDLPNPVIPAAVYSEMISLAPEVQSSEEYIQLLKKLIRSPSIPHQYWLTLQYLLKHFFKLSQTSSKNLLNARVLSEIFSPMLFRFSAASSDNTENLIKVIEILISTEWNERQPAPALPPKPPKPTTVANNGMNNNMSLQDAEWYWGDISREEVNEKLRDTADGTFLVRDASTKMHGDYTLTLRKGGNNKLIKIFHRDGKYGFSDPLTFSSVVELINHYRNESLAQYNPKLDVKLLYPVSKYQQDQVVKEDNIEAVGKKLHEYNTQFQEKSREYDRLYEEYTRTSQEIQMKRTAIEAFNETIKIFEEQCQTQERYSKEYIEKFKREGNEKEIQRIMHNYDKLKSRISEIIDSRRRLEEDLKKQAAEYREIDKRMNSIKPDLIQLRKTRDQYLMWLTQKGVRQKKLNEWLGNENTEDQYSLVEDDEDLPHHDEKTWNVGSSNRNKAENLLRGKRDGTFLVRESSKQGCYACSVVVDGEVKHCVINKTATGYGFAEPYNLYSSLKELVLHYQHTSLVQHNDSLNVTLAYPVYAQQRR
T1 sequence (O00329 whole entry): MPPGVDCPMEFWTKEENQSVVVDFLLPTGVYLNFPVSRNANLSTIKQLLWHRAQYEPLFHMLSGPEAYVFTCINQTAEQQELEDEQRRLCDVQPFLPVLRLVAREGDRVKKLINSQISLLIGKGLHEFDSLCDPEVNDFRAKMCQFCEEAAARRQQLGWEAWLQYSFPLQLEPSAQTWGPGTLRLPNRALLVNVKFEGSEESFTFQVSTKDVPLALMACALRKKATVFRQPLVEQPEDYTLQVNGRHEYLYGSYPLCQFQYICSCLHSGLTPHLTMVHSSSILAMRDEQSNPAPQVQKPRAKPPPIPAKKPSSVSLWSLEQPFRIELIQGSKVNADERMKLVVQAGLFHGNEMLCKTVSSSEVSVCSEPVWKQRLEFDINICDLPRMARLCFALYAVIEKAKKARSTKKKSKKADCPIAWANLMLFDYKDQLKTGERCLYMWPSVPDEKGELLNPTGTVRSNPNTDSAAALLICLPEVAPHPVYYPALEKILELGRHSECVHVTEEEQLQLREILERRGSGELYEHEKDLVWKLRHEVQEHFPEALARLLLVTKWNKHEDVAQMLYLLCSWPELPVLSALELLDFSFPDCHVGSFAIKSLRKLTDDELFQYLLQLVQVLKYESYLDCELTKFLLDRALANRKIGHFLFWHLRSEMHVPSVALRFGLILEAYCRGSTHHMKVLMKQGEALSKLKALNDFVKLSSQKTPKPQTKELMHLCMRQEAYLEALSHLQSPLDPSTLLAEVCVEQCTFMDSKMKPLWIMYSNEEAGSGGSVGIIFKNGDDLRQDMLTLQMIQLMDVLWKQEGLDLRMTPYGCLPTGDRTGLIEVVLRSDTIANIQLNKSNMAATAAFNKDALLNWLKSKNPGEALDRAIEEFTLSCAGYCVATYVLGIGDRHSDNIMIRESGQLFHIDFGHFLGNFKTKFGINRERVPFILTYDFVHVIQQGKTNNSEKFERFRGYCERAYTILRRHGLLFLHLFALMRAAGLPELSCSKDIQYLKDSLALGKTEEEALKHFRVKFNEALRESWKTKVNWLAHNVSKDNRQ
T1 sequence (P27986 whole entry partner): as the sequence (P27986 whole entry partner) above

As for `CCn1c(-c2cnc(C)nc2)nc2c(N[C@H]3CCN(C(=O)C4CCC(=O)N4)C3)ncnc21` (mixture of isomers) [Compound 2-64, (R and S)-5-{[(3S)-3-{[9-ethyl-8-(2-methylpyrimidin-5-yl)-9H-purin-6-yl]amino}pyrrolidin-1-yl]carbonyl}pyrrolidin-2-one], in test [1], the IC50 was determined as 6.7 nM. In test [2], the “Selectivity versus PI3Kalpha” value is on record as over 10.
For `CCCN1CC(Nc2ncnc3c2nc(-c2cnn(CC)c2C)n3C)CC1=O` (racemic) [Compound 14-1, 4(S and R)-{[8-(1-ethyl-5-methyl-1H-pyrazol-4-yl)-9-methyl-9H-purin-6-yl]amino}-1-propylpyrrolidin-2-one], the IC50 in test [1] came to 11 nM. Further, the “Selectivity versus PI3Kalpha” value in test [2] was over 10.
For the compound `CCn1c(-c2cnc(OC)c(C)c2)nc2c(N[C@H]3CCN(C(=O)C4CCOCC4)C3)ncnc21` [Compound 3A-4, 9-ethyl-8-(6-methoxy-5-methylpyridin-3-yl)-N-[(3S)-1-(tetrahydro-2H-pyran-4-ylcarbonyl)pyrrolidin-3-yl]-9H-purin-6-amine], the IC50 in test [1] was under 1 nM. Also, the “Selectivity versus PI3Kalpha” value in test [2] is recorded as over 10.
On to `CCn1c(-c2cnc(C)nc2)nc2c(N[C@H]3CCN(C(=O)CC(C)(C)O)C3)ncnc21` [Compound 2-30, 4-[(3S)-3-{[9-ethyl-8-(2-methylpyrimidin-5-yl)-9H-purin-6-yl]amino}pyrrolidin-1-yl]-2-methyl-4-oxobutan-2-ol], for which the IC50 in test [1] was found to be 15 nM. Further, the “Selectivity versus PI3Kalpha” value in test [2] is given as over 10.
As for `CCn1c(-c2cnc(C)nc2)nc2c(N[C@H]3CCN(C(=O)c4cc(C)on4)C3)ncnc21` [Compound 2-70, 9-ethyl-N-{(3S)-1-[(5-methylisoxazol-3-yl)carbonyl]pyrrolidin-3-yl}-8-(2-methylpyrimidin-5-yl)-9H-purin-6-amine], in test [1], the IC50 is 7.4 nM. Further, the “Selectivity versus PI3Kalpha” value in test [2] is given as over 10.
Take `CCn1c(-c2cnc(C)nc2)nc2c(NC3(C)CCN(C(=O)C4CC4)C3)ncnc21` (racemic) [Compound 3-18, N-[(R and S)-1-(cyclopropylcarbonyl)-3-methylpyrrolidin-3-yl]-9-ethyl-8-(2-methylpyrimidin-5-yl)-9H-purin-6-amine]: the IC50 in test [1] is 2.6 nM. Also, in test [2], the “Selectivity versus PI3Kalpha” value is over 10.
With `CCn1c(CCOC)nc2c(N[C@H]3CCN(C(=O)C4CC4)C3)ncnc21` [Compound 7-22, N-[(3S)-1-(cyclopropylcarbonyl)pyrrolidin-3-yl]-9-ethyl-8-(2-methoxyethyl)-9H-purin-6-amine], in test [1], the IC50 was 230 nM. Moreover, the “Selectivity versus PI3Kalpha” value in test [2] is over 10.
Regarding `CCn1c(-c2cnc(C)nc2)nc2c(N[C@H]3CCN(C(=O)OCc4ccccc4)C3)ncnc21` [Compound 13-10, benzyl (3S)-3-{[9-ethyl-8-(2-methylpyrimidin-5-yl)-9H-purin-6-yl]amino}pyrrolidine-1-carboxylate], the IC50 in test [1] came out at 2 nM. Also, the “Selectivity versus PI3Kalpha” value in test [2] is on record as over 10.
`CCn1c(-c2cnc(C)nc2)nc2c(N[C@H]3CC[C@@H](C(=O)N4CCC4)C3)ncnc21` [Compound 5-6, N-[(1S,3R)-3-(azetidin-1-ylcarbonyl)cyclopentyl]-9-ethyl-8-(2-methylpyrimidin-5-yl)-9H-purin-6-amine]: the IC50 in test [1] was determined as 11 nM. Besides, in test [2], the “Selectivity versus PI3Kalpha” value is given as over 10.
For `CCn1c(-c2cnc(C)nc2)nc2c(N[C@H]3CCN(C(=O)OC(C)(C)C)C3)ncnc21` [Compound 1-13, (S)-tert-butyl 3-((9-ethyl-8-(2-methylpyrimidin-5-yl)-9H-purin-6-yl)amino)pyrrolidine-1-carboxylate], in test [1], the IC50 was under 1 nM. In test [2], the “Selectivity versus PI3Kalpha” value was over 10.
As to `CCn1c(C(=O)NCCOC)nc2c(N[C@H]3CCN(C(=O)C4CC4)C3)ncnc21` [Compound 6-2, 6-{[(3S)-1-(cyclopropylcarbonyl)pyrrolidin-3-yl]amino}-9-ethyl-N-(2-methoxyethyl)-9H-purine-8-carboxamide], in test [1], the IC50 worked out at 85 nM. The “Selectivity versus PI3Kalpha” value in test [2] was over 10.
In the case of `CCn1c(C(=O)Nc2cccnc2)nc2c(N[C@H]3CCN(C(=O)C4CC4)C3)ncnc21` [Compound 6-21, 6-{[(3S)-1-(cyclopropylcarbonyl)pyrrolidin-3-yl]amino}-9-ethyl-N-pyridin-3-yl-9H-purine-8-carboxamide], the IC50 in test [1] stood at 17 nM. In addition, the “Selectivity versus PI3Kalpha” value in test [2] was over 10.
`Cc1ncc(-c2nc3c(N[C@H]4CCN(C(=O)C5CC5)C4)ncnc3n2CC(F)(F)F)cn1` [Compound 9-5, N-[(3S)-1-(cyclopropylcarbonyl)pyrrolidin-3-yl]-8-(2-methylpyrimidin-5-yl)-9-(2,2,2-trifluoroethyl)-9H-purin-6-amine]: in test [1], the IC50 amounted to 580 nM. In addition, the “Selectivity versus PI3Kalpha” value in test [2] is over 10.
Turning to `CCOC(=O)C(C)NC(=O)N1CC[C@H](Nc2ncnc3c2nc(-c2cnc(C)nc2)n3CC)C1` (stereo partly drawn) [Compound 12-18, ethyl N-{[(3S)-3-{[9-ethyl-8-(2-methylpyrimidin-5-yl)-9H-purin-6-yl]amino}pyrrolidin-1-yl]carbonyl}(D and L)-alaninate], in test [1], the IC50 stood at 13 nM. Further, the “Selectivity versus PI3Kalpha” value in test [2] was over 10.
Turning to `CCn1c(-c2cnc(C)nc2)nc2c(N[C@H]3CCN(C(=O)C(C)(C)N)C3)ncnc21` [Compound 2-80, N-[(3S)-1-(2-amino-2-methylpropanoyl)pyrrolidin-3-yl]-9-ethyl-8-(2-methylpyrimidin-5-yl)-9H-purin-6-amine], the IC50 in test [1] stood at 61 nM. Further, the “Selectivity versus PI3Kalpha” value in test [2] is over 10.
Regarding `CCn1c(-c2cnc(C)nc2)nc2c(N[C@H]3CCN(C(=O)[C@@H]4CCOC4)C3)ncnc21` [Compound 2-40, 9-ethyl-8-(2-methylpyrimidin-5-yl)-N-{(3S)-1-[(3R)-tetrahydrofuran-3-ylcarbonyl]pyrrolidin-3-yl}-9H-purin-6-amine], the IC50 in test [1] was 1.6 nM. Further, the “Selectivity versus PI3Kalpha” value in test [2] was over 10.
On the same counts, the results for `CCn1c(-c2cnc(C)nc2)nc2c(N[C@H]3C[C@H](C(=O)O)N(C(=O)C4CC4)C3)ncnc21` [Compound 15-1, (4S)-1-(cyclopropylcarbonyl)-4-{[9-ethyl-8-(2-methylpyrimidin-5-yl)-9H-purin-6-yl]amino}-D-proline] are 2.5 nM and over 10.
For the compound `CCn1c(-c2cnc(C)nc2)nc2c(NC3CN(C(=O)C4CC4)CC3C(F)(F)F)ncnc21` (racemic) [Compound 3-22, N-[(3R,4S and 3S,4R)-1-(cyclopropylcarbonyl)-4-(trifluoromethyl)pyrrolidin-3-yl]-9-ethyl-8-(2-methylpyrimidin-5-yl)-9H-purin-6-amine], the IC50 in test [1] came out at 2.9 nM. In addition, the “Selectivity versus PI3Kalpha” value in test [2] was over 10.
Regarding `CCn1c(C(N)=O)nc2c(N[C@H]3CCN(C(=O)C4CC4)C3)ncnc21` [Compound 6-11, 6-{[(3S)-1-(cyclopropylcarbonyl)pyrrolidin-3-yl]amino}-9-ethyl-9H-purine-8-carboxamide], the IC50 in test [1] came to 73 nM. In addition, the “Selectivity versus PI3Kalpha” value in test [2] was over 10.
For `CCC(=O)N1CC[C@H](Nc2ncnc3c2nc(-c2cnc(C)nc2)n3C)C1` [Compound 3-15, 9-methyl-8-(2-methylpyrimidin-5-yl)-N-[(3S)-1-propanoylpyrrolidin-3-yl]-9H-purin-6-amine], the IC50 in test [1] was found to be 4.3 nM. In test [2], the “Selectivity versus PI3Kalpha” value is recorded as over 10.
On the same counts, the results for `CCn1c(-c2cnc3[nH]ccc3c2)nc2c(N[C@H]3CCN(C(=O)C4CC4)C3)ncnc21` [Compound 3-24, N-[(3S)-1-(cyclopropylcarbonyl)pyrrolidin-3-yl]-9-ethyl-8-(1H-pyrrolo[2,3-b]pyridin-5-yl)-9H-purin-6-amine] are under 1 nM and over 10.
As for `CCNC(=O)N1CCC[C@H](Nc2ncnc3c2nc(-c2cnn(CC)c2C)n3C)C1` [Compound 12-1, (3S)-N-ethyl-3-{[8-(1-ethyl-5-methyl-1H-pyrazol-4-yl)-9-methyl-9H-purin-6-yl]amino}piperidine-1-carboxamide], the IC50 in test [1] came out at 30 nM. Also, the “Selectivity versus PI3Kalpha” value in test [2] was over 10.
`CCn1c(-c2cncc(Cl)c2)nc2c(N[C@H]3CCN(C(=O)C4CC4)C3)ncnc21` [Compound 3-38, 8-(5-chloropyridin-3-yl)-N-[(3S)-1-(cyclopropylcarbonyl)pyrrolidin-3-yl]-9-ethyl-9H-purin-6-amine]: the IC50 in test [1] came out at 1.8 nM. Besides, the “Selectivity versus PI3Kalpha” value in test [2] is given as over 10.
As to `CCn1c(-n2cnc3c2CCCC3)nc2c(N[C@H]3CCN(C(=O)C4CC4)C3)ncnc21` [Compound 8-8, N-[(3S)-1-(cyclopropylcarbonyl)pyrrolidin-3-yl]-9-ethyl-8-(4,5,6,7-tetrahydro-1H-benzimidazol-1-yl)-9H-purin-6-amine], in test [1], the IC50 was under 1 nM. For the same compound, the “Selectivity versus PI3Kalpha” value in test [2] is recorded as over 10.
For the compound `CCC(=O)N1CC[C@H](Nc2ncnc3c2nc(-c2cncc(C(C)(C)O)c2)n3C)C1` [Compound 3-34, 2-[5-(9-methyl-6-{[(3S)-1-propanoylpyrrolidin-3-yl]amino}-9H-purin-8-yl)pyridin-3-yl]propan-2-ol], in test [1], the IC50 came to 2 nM. For the same compound, the “Selectivity versus PI3Kalpha” value in test [2] is over 10.
The like results for `CCn1c(-c2ccc(C(F)(F)F)cc2)nc2c(N[C@H]3CCN(C(=O)C4CC4)C3)ncnc21` [Compound 3-30, N-[(3S)-1-(cyclopropylcarbonyl)pyrrolidin-3-yl]-9-ethyl-8-[4-(trifluoromethyl)phenyl]-9H-purin-6-amine] were, in that order, 1.2 nM and over 10.
Take `CCn1ncc(-c2nc3c(N[C@H]4CCN(C(=O)OC(C)(C)C)C4)ncnc3n2CC)c1C` [Compound 1-14, tert-butyl (3S)-3-{[9-ethyl-8-(1-ethyl-5-methyl-1H-pyrazol-4-yl)-9H-purin-6-yl]amino}pyrrolidine-1-carboxylate]: the IC50 in test [1] came out at 1.1 nM. In test [2], the “Selectivity versus PI3Kalpha” value is recorded as over 10.

The values are drawn from patent publication US9938281B2 (Merck Sharp & Dohme Corp., priority 2012, dated 2018).
